Earlier results in patent publication US20060093222A1, “Data processing, analysis, and visualization system for use with disparate data types” (priority 1999, published 2006).

Experiments:
[1] = test system: Bacillus subtilis and Bacillus cereus; conditions: liquid and semi-solid substrates, aerobic and anaerobic

In the case of `O=S(O)S(=O)(=O)O` [metabisulphite], the anti-sporulation effect [1] is given as “effective anti-sporulation agent”.
In the case of Tissue plasminogen activator [t-PA], the “additional patients normal or nearly normal 3 months after their stroke” value (stroke patients; for every 100 stroke patients treated with t-PA) is listed as 11-13, the “rate of fatal ICH” value (stroke patients; t-PA therapy, stroke patients) is listed as 3% and the “rate of symptomatic intracerebral hemorrhage (ICH)” value (stroke patients; t-PA therapy, stroke patients) is listed as 6%.
